{"source": "patent US20200254026A1", "about": "“AGENT FOR PROMOTING MIGRATION OF PLURIPOTENT STEM CELLS” (NIPPON ZOKI PHARMACEUTICAL CO., LTD., priority 2015, published 2020)", "system": "Muse cells (SSEA-3-positive cells)", "assay": "Cell mobility analysis (EZ-TAXIScan), chemotactic ability of Muse cells", "assay_type": "cell-based", "conditions": "SSEA-3-positive cells from human bone marrow mesenchymal stem cells; 2 μM S1P as positive control; photographed every 10 minutes", "experimental": "Mesenchymal stem cells derived from human bone marrow in a concentration of 1×10^7 cells/mL were prepared using an FACS buffer containing Dulbecco PBS, 0.5% bovine serum albumin, and 2 mM EDTA (ethylenediaminetetraacetic acid). Thereto, an anti-SSEA-3 antibody (diluted 400 times) was added as a primary antibody. Reaction was allowed to proceed on ice for 1 hour while being suspended at appropriate times, followed by centrifugation for supernatant removal. Then, the addition and removal of an FACS buffer were repeated three times for rinsing. Thereto, an FITC-labeled anti-rat-IgM antibody (diluted 100 times) was added as a secondary antibody. Subsequently, in the same manner as above, reaction was allowed to proceed on ice for 1 hour and then addition and removal of an FACS buffer were repeated three times for rinsing. SSEA-3-positive cells were separated by FACS the day before measurement, followed by overnight culturing under conditions of 37° C. and 5% CO2. […] The resulting cell suspension was injected into each well of an EZ-[…] (registered trademark; the same applies hereinafter) holder chamber (GE Healthcare), and the cells were aligned properly in front of a terrace by a water-level difference method. […] The EZ-[…] holder chamber was placed in an incubator under conditions of 37° C. and 5% CO2. […]"}
{"smiles": "CCCCCCCCCCCCC/C=C/[C@@H](O)[C@@H](N)COP(=O)(O)O", "note": "[S1P, sphingosine-1-phosphate]", "values": [{"measurement": "movement of Muse cells (chemotactic ability with time)", "result": "same movement of Muse cells was observed"}]}
